Where two headings read alike, the source gives them in different places.
What was measured:
Type in all cases: biochemical
[1] = molecular target: T1, full-length wild type (WT) human BTK (Homo sapiens, UniProt Q06187); experiment: BTK activity assay, [33P]-ATP incorporation into poly-EY
T1 construct: against full-length wild type (WT) and mutant human BTK enzymes
Procedure: (§1) The activity of the compound of Formula I against full-length wild type (WT) and mutant human BTK enzymes is determined by monitoring the incorporation [^33P]-PO4 from [γ-^33P]-ATP into poly-glutamic acid-tyrosine (poly-EY) peptide substrate. The reaction mixtures each contained polyhistidine-tagged BTK enzyme, poly-EY and BTK inhibitor at the appropriate concentrations. The reaction mixtures are incubated for 20 minutes at room temperature after which [[γ-^33P]-ATP (radiochemical concentration 10 μCi/μL) at 10 μM or the ATP Km concentration for each enzyme is added. After 2 hours of incubation at room temperature, the radiolabeled peptide substrate is captured, and incorporated radioactivity is quantified.
(§2) Each assay is performed at an ATP concentration close to the Km for each enzyme. […] After co-incubation with a serial dilution of the compound of Formula I, the quantity of ^33P incorporated into a peptide substrate is measured and the data analyzed using standard curve fitting methods.

371 kinases = experiment: Kinase selectivity assay (Reaction Biology Wild-Type Kinase Profiler); details: 1.0 μM compound; ATP close to Km for each enzyme
Procedure: as §2

BTK P190K = molecular target: T2, BTK P190K (Homo sapiens, UniProt Q06187, P190K); experiment: BTK activity assay, [33P]-ATP incorporation into poly-EY; details: ATP at Km concentration
T2 construct: against full-length wild type (WT) and mutant human BTK enzymes
T2 sequence (Q06187 whole entry P190K): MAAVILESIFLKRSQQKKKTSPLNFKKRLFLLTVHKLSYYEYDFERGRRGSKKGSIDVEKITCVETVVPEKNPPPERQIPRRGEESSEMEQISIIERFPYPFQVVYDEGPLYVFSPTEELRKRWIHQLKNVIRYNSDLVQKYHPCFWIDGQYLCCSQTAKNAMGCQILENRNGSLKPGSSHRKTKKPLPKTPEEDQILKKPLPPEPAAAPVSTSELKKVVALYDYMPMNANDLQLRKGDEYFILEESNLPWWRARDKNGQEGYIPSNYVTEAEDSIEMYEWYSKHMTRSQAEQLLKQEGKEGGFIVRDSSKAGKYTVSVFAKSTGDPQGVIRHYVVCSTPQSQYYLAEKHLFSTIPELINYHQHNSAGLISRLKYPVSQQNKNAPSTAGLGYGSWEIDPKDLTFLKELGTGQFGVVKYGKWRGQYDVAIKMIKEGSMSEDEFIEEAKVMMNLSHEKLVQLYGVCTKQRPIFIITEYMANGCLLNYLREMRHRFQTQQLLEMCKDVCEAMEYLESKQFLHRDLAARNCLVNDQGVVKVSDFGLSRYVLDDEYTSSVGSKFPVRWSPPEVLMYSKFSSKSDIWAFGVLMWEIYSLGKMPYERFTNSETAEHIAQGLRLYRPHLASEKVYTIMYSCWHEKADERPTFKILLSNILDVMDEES
Procedure: as §1, with “The” for “The activity of the compound of Formula I against full-length wild type (WT) and mutant human BTK enzymes is determined by monitoring the incorporation [^33P]-PO4 from [γ-^33P]-ATP into poly-glutamic acid-tyrosine (poly-EY) peptide substrate. The”

BTK E41K = molecular target: T3, BTK E41K (Homo sapiens, UniProt Q06187, E41K); experiment: as above; details: ATP at Km concentration
T3 construct: against full-length wild type (WT) and mutant human BTK enzymes
T3 sequence (Q06187 whole entry E41K): as the sequence (Q06187 whole entry P190K) above, with E41K, K190P counted along it
Procedure: as §1, with “The” for “The activity of the compound of Formula I against full-length wild type (WT) and mutant human BTK enzymes is determined by monitoring the incorporation [^33P]-PO4 from [γ-^33P]-ATP into poly-glutamic acid-tyrosine (poly-EY) peptide substrate. The”

T1 sequence (Q06187 whole entry): as the sequence (Q06187 whole entry P190K) above, with K190P counted along it

**Q.** With `COc1ccc(F)cc1C(=O)NCc1ccc(-c2nn([C@@H](C)C(F)(F)F)c(N)c2C(N)=O)cc1` [compound of Formula I, (S)-5-amino-3-(4-((5-fluoro-2-methoxybenzamido)methyl)phenyl)-1-(1,1,1-trifluoropropan-2-yl)-1H-pyrazole-4-carboxamide] as the molecule, how does the IC50 ([1]; 10 μM ATP, read-out: IC50) read?
**A.** Its IC50 is 0.95 nM.

**Q.** What about the IC50 ([1]; ATP at Km concentration, read-out: IC50 value) of the same molecule?
**A.** Its IC50 is 3.15 nM.

**Q.** What about the “kinases other than BTK with Percent of Control (POC) values less than 50” value (371 kinases) of the same molecule?
**A.** The value was “only eight of 371 kinases other than BTK”.

**Q.** What about the IC50 (BTK P190K) of the same molecule?
**A.** The IC50 was 2.14 nM.

**Q.** What about the IC50 (BTK E41K) of the same molecule?
**A.** The IC50 was 7.85 nM.
